Source: patent publication US10077290B2, “Stabilized antiviral fusion helices” (priority 2011, dated 2018)
Entries after “also recorded” stand apart in the source; their conditions may differ.

Assays:
RSV-A2 [1] = experiment: RSV-A2 infection of A549 cells at 1 MOI, Hep-2 plaque assay titers; assay type: cell-based, Respiratory Syncytial Virus (RSV); details: 5 μM peptide
Description: In this study A549 cells were plated in a 24 well plate at 30,000 cells/well. The following day, the cells were treated with 5 μM of the indicated stapled SAHF peptide or volume-equivalent DMSO vehicle, followed by RSV-A2 infection at 1 MOI. The cells were infected for 2 h, and the infection medium replaced with 400 μl of DMEM containing 5% FBS and 5 μM of the indicated stapled SAHF peptide. Cells were harvested along with the supernantant 24 h post infection, vortexed for 10 sec, and the supernatant collected, leaving the cell pellet behind. Hep-2 cells were plated on a 24 well plate at 60,000 cells/well the day before use. Plaque assay was performed on Hep-2 cells using the collected supernatant and titers determined at 5 days post infection of Hep-2 cells. The results of this analysis are shown in FIG. 14 in which titers are shown as log 10 pfu/ml and the values represent the mean+/−SEM for two independent experiments (***p<0.001; ****p<0.0001).

RSV-A2 [2] = experiment: Infection of A549 cells at 0.1 MOI, Hep-2 plaque assay titers: RSV-A2; assay type: cell-based, Respiratory Syncytial Virus (RSV); details: 5 μM peptide
Description: (§1) In this study A549 cells were plated in a 24 well plate at 30,000 cells/well. The following day, the cells were treated with 5 μM of the indicated stapled SAHF peptide or volume-equivalent DMSO vehicle, followed by infection with RSV-A2, RSV 2-20, or RSV-rA2Line19F within 30 minutes at 0.1 MOI. The supernatant was collected 24 h post infection, and applied to Hep-2 cells that were plated the day prior on a 24 well plate at 60,000 cells/well. Plaque assays were performed on Hep-2 cells using the collected supernatant and titers determined at 5 days post infection of Hep-2 cells. The results of this analysis are shown in FIGS. 15A, 15B and 15C in which titers are shown as pfu/ml and the values represent the mean+/−SEM for two independent experiments (***p<0.001; ****p<0.0001).

RSV 2-20 = experiment: Infection of A549 cells at 0.1 MOI, Hep-2 plaque assay titers: RSV 2-20; assay type: cell-based, Respiratory Syncytial Virus (RSV); details: 5 μM peptide
Description: as §1

RSV-rA2Line19F = experiment: Infection of A549 cells at 0.1 MOI, Hep-2 plaque assay titers: RSV-rA2Line19F; assay type: cell-based, Respiratory Syncytial Virus (RSV); details: 5 μM peptide
Description: as §1

RgRSV = experiment: Intranasal RgRSV infection of BALB/c mice after intranasal peptide; assay type: in vivo
Description: One hour post treatment, three groups of mice were inoculated with a single dose of RgRSV at 1×10^6 pfu/mouse, with the fourth group receiving a mock inoculation. Mice were sacrificed at 24 hours post infection and the noses harvested, sectioned, stained with DAPI and imaged with an Olympus fluorescent microscope (FIG. 16A; original magnification 20×). Image J analysis was performed on the acquired images (FIG. 16B) and average GFP positive (green) and DAPI positive (blue) cells were calculated from eight images (4 sections) per mouse (bars represent percent GFP positive of total DAPI-positive cells present in the images and error bars represent mean+/−SEM. *, p<0.001). FIG. 16C depicts the results of hematoxylin and eosin staining of the nose sections (original magnification 20×, insets 100×) In FIG. 16C black arrows highlight thickened mucosa.

RSV-A2 [3] = experiment: RSV-A2 lung infection of BALB/c mice after prophylactic intranasal peptide; assay type: in vivo; details: 125 μM intranasally, dosing and inoculation repeated at 16 hours, 4 days after second infection
Description: One hour post treatment, three groups of mice were inoculated with a single dose of RSV-A2 at 1×10^6 pfu/mouse. Peptide dosing and viral inoculation was repeated 16 hours post-infection. The fourth group was treated with volume-equivalent vehicle and mock-infected. Two mice from each group were sacrificed 4 days after the second infection and left lung lobes harvested after 1% paraformaldehyde perfusion, followed by cryopreservation in OCT. Sections (5 μm) were treated with 1:1000 dilution of rabbit anti-RSV polyclonal antibody (Millipore) overnight followed by anti-rabbit antibody conjugated to Alexa Fluor 555 (1:400) (red) (Molecular Probes) for 1 h. Sections were washed and mounted with medium containing DAPI (blue) and viewed with an Olympus fluorescent microscope (FIG. 17A; original magnification 20×). Image J analysis was performed on the acquired images and the percentage RSV-positive cells (red) of total DAPI-positive cells (blue) determined from 8 images (4 sections) per mice (FIG. 17B; .error bars represent mean+/−SEM; *, p<0.0001). Four days after the second infection, bronchoalveolar lavage (BAL) was performed on one mouse from each group and BAL supernatant used to determine the viral titers by plaque assay on Hep-2 cells (FIG. 17C; error bars represent mean+/−SEM of plaques counted per in vivo specimen; *, p<0.05). Also at four days after the second infection, cranial and caudal lobes of the right lung from two mice per group were snap frozen on dry ice. A lung homogenate was generated from the cranial lobe and supernatant subjected to viral titer determination (log 10 pfu/ml) (FIG. 17D; error bars represent mean+/−SEM; *, p<0.05). Total RNA was isolated from the caudal lobe of the right lung and quatitative RT-PCR was performed for the RSV-N gene. The results of this analysis are presented in FIG. 17E in which the bar graphs represent the RSV-N gene expression normalized to the mock-infected tissue.

Substance: FD8SISQVNXKINQSLAFI8KSDELLXNVNAGKST (FDXSISQVNXKINQSLAFIXKSDELLXNVNAGKST; two hydrocarbon staples; MOD_RES (3)..(3) Any amino acid; (3)..(10) Crosslink between residues; MOD_RES (10)..(10) Any amino acid; MOD_RES (20)..(20) Any amino acid; (20)..(27) Crosslink between residues; MOD_RES (27)..(27) Any amino acid) [SAHF-H, J]
- RSV-A2 infection (viral titers) (RSV-A2 [1]): inhibit RSV-A2 infection of A549 cells
- viral infection by RSV-A2 (titers) (RSV-A2 [2]): prevents viral infection
- viral infection by RSV 2-20 (titers) (RSV 2-20): prevents viral infection
- viral infection by RSV-rA2 Line 19F (titers) (RSV-rA2Line19F): prevents viral infection
- intranasal RgRSV infection (percent GFP positive cells in nose sections) (RgRSV; 125 μM intranasally one hour before RgRSV, 24 hours post infection): blocks intranasal RgRSV infection
- inflammation in nose sections (hematoxylin and eosin staining) (RgRSV; RgRSV-infected, 125 μM intranasally): comparatively decreased inflammatory cells
- RSV-A2 lung infection, by each measure (RSV-positive cells, BAL and lung homogenate titers, RSV-N gene) (RSV-A2 [3]): inhibited RSV infection; also recorded: inhibits RSV-A2 lung infection
